This is an account of results in patent US6770676B2, “Dicarboxylic acid derivatives” (Taisho Pharmaceutical Co., Ltd., priority 2000, dated 2004).

pIC50: −log10 of the molar value.

In data set [1] the target is T1, metabotropic glutamate receptors mGluR2 (Rattus norvegicus, UniProt P31421).
T1 construct: expressed in transfected cells
Kind of data set: Effects of test compounds on cAMP accumulation (antagonism of glutamic acid suppression of Forskolin-stimulated cAMP) in CHO cells expressing mGluR2. In kind it is cell-based. To be noted: CHO cells stably expressing mGluR2; 50% inhibition of suppression by 30 μM glutamic acid of cAMP increase by 10^-5 M Forskolin; cAMP EIA kit. How it is done: Experimental Example (Effects of Test Compounds on cAMP Accumulation)
CHO cells stably expressing metabotropic glutamate receptors mGluR2 were seeded in a 96-well plate in the ratio of 1.26×10^4 cells/well/0.32 cm^2/150 μl in Dalbeco-modified Eagle medium [1% proline, 50 units/ml penicillin, 50 μg/ml streptomycin, 2 mM L-glutamine (added when used)] containing 10% dialyzed fetal bovine serum, and were cultured for 2 days at 37° C. under an atmosphere of 5% CO2. Subsequently, the medium was replaced with an L-glutamine free medium. Four hours later, the supernatant liquid was aspirated. […] A study was carried out for the antagonistic effects of the test compounds on the Forskolin stimulation cAMP accumulation quantity suppression [for control, the conditions were set with no addition of the compounds (Tanabe et al., Neuron, 8, 169-179 (1992))]. The reactions were quenched by adding 100 μl of ice-cooled ethanol, the entire quantity of the supernatant liquid was collected in a separate plate, and was subsequently dried up at normal temperature with an evaporator, followed by preservation at −20° C. In the dried-up samples, the quantity of cAMP was measured using a cAMP EIA kit (from the Amasham company). The control value was subtracted from each cAMP quantity. […]

T1 sequence (P31421 19-872): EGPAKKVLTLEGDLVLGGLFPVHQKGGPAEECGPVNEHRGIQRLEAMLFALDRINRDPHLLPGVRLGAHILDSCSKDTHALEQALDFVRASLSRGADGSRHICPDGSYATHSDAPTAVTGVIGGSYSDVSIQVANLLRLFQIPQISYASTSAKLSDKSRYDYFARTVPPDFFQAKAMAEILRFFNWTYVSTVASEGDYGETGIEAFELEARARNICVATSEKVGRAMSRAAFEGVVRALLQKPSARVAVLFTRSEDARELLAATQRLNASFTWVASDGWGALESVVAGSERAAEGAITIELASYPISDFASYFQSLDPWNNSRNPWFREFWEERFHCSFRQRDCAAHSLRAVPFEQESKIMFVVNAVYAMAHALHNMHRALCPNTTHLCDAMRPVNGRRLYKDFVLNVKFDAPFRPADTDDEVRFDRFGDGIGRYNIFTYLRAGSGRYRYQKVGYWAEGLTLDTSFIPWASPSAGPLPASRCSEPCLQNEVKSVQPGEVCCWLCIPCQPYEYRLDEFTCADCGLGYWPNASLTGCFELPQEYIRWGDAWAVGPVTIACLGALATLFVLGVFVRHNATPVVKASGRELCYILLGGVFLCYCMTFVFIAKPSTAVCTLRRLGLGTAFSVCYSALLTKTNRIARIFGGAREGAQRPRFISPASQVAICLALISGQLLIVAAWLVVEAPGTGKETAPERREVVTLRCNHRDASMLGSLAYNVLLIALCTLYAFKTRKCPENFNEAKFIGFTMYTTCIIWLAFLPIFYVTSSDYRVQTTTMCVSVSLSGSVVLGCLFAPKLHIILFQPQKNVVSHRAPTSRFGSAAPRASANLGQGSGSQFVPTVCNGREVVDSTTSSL

`N[C@@]1(C(=O)O)C=C[C@@H]2[C@H]1[C@@]2(F)C(=O)O` [Example 7, (1R,2S,5R,6R)-2-amino-6-fluoro-bicyclo[3.1.0]hex-3-ene-2,6-dicarboxylic acid]: the melting point (as a rule, the temperature of the solid-liquid transition) is > 174 °C (dec.).
`N[C@@]1(C(=O)O)[C@H](O)C[C@@H]2[C@H]1[C@@]2(F)C(=O)O` [Example 8, (1R,2R,3R,5R,6R)-2-amino-6-fluoro-3-hydroxy-bicyclo[3.1.0]hexane-2,6-dicarboxylic acid]: the melting point is > 172 °C (dec.). Further, the pIC50 – broadly, the negative decadic logarithm of the IC50, by convention in mol/L – in data set [1] is 6.32.
